Patent publication US11014941B2, “Pyrrolopyrimidine derivatives useful as inhibitors of influenza virus replication” (priority 2017, dated 2021)

Molecular target: Influenza PB2 (Influenza A virus, UniProt P03428)
Assay: biochemical
Type: binding
Conditions: read-out: Influenza PB2 affinity, IC50

Influenza PB2, sequence (P03428 whole entry, looked up): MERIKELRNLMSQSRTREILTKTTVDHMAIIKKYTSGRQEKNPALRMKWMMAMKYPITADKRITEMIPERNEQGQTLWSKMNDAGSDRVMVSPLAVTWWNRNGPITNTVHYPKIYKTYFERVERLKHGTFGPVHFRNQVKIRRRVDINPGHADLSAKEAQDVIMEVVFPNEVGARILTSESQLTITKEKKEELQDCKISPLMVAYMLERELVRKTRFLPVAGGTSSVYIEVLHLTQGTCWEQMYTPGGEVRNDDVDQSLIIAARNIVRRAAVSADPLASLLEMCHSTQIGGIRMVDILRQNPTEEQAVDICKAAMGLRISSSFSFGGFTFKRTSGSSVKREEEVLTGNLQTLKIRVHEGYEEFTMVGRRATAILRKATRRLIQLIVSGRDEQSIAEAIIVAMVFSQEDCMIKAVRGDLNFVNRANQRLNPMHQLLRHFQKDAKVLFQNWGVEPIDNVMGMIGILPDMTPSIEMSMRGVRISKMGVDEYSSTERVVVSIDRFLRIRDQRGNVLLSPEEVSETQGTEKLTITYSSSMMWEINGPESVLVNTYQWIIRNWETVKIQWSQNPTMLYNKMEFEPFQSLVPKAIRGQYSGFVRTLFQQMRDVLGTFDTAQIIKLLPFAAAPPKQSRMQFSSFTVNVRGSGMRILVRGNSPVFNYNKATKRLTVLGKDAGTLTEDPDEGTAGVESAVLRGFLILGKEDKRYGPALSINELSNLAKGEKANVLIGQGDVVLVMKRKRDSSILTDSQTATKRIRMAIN

Row | SMILES | IC50 [µM]
1 | CNC(=O)Cn1cc(-c2c[nH]c3ncc(F)cc23)c2cncnc21 [Compound C9] | 10 to 100
2 | O=C(O)[C@@H]1C2CCC(CC2)C1n1cc(Cl)c2cnc(-c3c[nH]c4ncc(Cl)cc34)nc21 (single isomer, unassigned) [Compound B137] | < 1
3 | CN(C)C(=O)N1CCCC(Cn2cc(F)c3cnc(-c4c[nH]c5ncc(F)cc45)nc32)C1 (stereo not drawn) [Compound B75] | 10 to 100
4 | CCCCCOCCCCCNC(=O)N1CCC[C@H](n2ccc3cnc(-c4c[nH]c5ncc(F)cc45)nc32)C1 [Compound B34] | > 100
5 | CCOC(=O)[C@H]1C2CCC(CC2)[C@@H]1n1cc(C#CCCSC)c2cnc(-c3c[nH]c4ncc(F)cc34)nc21 [Compound B185] | > 100
6 | CCOC(=O)[C@@H]1C2CCC(CC2)[C@H]1n1cc(-c2cn[nH]c2)c2cnc(-c3c[nH]c4ncc(F)cc34)nc21 [Compound B174] | 10 to 100
7 | CCCCCOCCCCC(=O)N[C@H]1CCC[C@@H](n2ccc3cnc(-c4c[nH]c5ncc(F)cc45)nc32)C1 [Compound B50] | > 100
8 | CCOC(=O)[C@@H]1C2CCC(CC2)[C@H]1n1cc(F)c2cnc(-c3c[nH]c4ncc(C#N)cc34)nc21 [Compound B215] | > 100
9 | O=C(O)[C@@H]1C2CCC(CC2)C1n1cc(-c2ccncc2)c2cnc(-c3c[nH]c4ncc(Cl)cc34)nc21 (single isomer, unassigned) [Compound B189] | 1 to 10
10 | N#Cc1cnc2[nH]cc(-c3ncc4c(Cl)cn([C@@H]5C6CCC(CC6)[C@H]5C(=O)O)c4n3)c2c1 [Compound B218] | > 100
11 | O=C(O)[C@@H]1C2CCC(CC2)[C@H]1n1cc(-c2ccn[nH]2)c2cnc(-c3c[nH]c4ncc(F)cc34)nc21 [Compound B164] | < 1
12 | COC(=O)[C@H](Cc1ccccc1)NC(=O)Cn1ccc2cnc(-c3c[nH]c4ncc(F)cc34)nc21 [Compound B8] | > 100
13 | CNC(=O)[C@]1(C)CCCC[C@H]1n1cc(F)c2cnc(-c3c[nH]c4ncc(Cl)cc34)nc21 [Compound B92] | 10 to 100
14 | COC(=O)CNC(=O)CCn1ccc2c(-c3c[nH]c4ncc(F)cc34)ncnc21 [Compound A16] | > 100
15 | CN(C)C(=O)c1cn([C@@H]2C3CCC(CC3)[C@H]2C(=O)O)c2nc(-c3c[nH]c4ncc(Cl)cc34)ncc12 [Compound B204] | < 1
16 | CCOC(=O)[C@]1(C)CCCC[C@H]1n1cc(F)c2cnc(-c3c[nH]c4ncc(Cl)cc34)nc21 [Compound B88] | > 100
17 | O=C(O)[C@@H]1C2CCC(CC2)C1n1cc(F)c2cnc(-c3c[nH]c4ncc(Cl)cc34)nc21 (single isomer, unassigned) [Compound B144] | < 1
18 | COC(=O)C[C@H](NC(=O)Cn1ccc2c(-c3c[nH]c4ncc(F)cc34)ncnc21)C(=O)OC [Compound A12] | > 100
19 | O=C(O)[C@H]1C2CCC(CC2)C1n1cc(Cl)c2cnc(-c3c[nH]c4ncc(F)cc34)nc21 (single isomer, unassigned) [Compound B133] | < 1
20 | O=C(O)[C@@H]1C2CCC(CC2)[C@H]1n1ccc2cnc(-c3c[nH]c4ncc(F)cc34)cc21 [Compound B208] | 1 to 10
21 | CN(C)C(=O)Cn1ccc2cnc(-c3c[nH]c4ncc(F)cc34)nc21 [Compound B1] | 10 to 100
22 | CC(CC(=O)O)n1cc(-c2c[nH]c3ncc(F)cc23)c2cncnc21 (stereo not drawn) [Compound C8] | 10 to 100
23 | CC(C)c1cn([C@@H]2C3CCC(CC3)[C@H]2C(=O)O)c2nc(-c3c[nH]c4ncc(F)cc34)ncc12 [Compound B175] | < 1
24 | CN(C)C(=O)CCn1cc(-c2c[nH]c3ncc(F)cc23)c2cncnc21 [Compound C2] | > 100
25 | COC(=O)[C@H](Cc1ccccc1)NC(=O)Cn1ccc2c(-c3c[nH]c4ncc(F)cc34)ncnc21 [Compound A8] | > 100
26 | CC(C)(C)OC(=O)N[C@@H]1C2CCC(CC2)[C@H]1n1cc(Cl)c2cnc(-c3c[nH]c4ncc(F)cc34)nc21 [Compound B172] | > 100
27 | O=C(O)[C@@H]1C2CCC(CC2)[C@H]1n1cc(CCc2ccccn2)c2cnc(-c3c[nH]c4ncc(F)cc34)nc21 [Compound B186] | < 1
